Assay results as given in ChEMBL document CHEMBL5518215, “Unlocking Antibacterial Potential: Key-Site-Based Regulation of Antibacterial Spectrum of Peptides” (J Med Chem, 2024).

Columns and labels:
Escherichia coli [1] = test: Antimicrobial activity against Escherichia coli 25922 assessed as absence bacterial growth measured after 18 to 24 hrs incubation by NCCLS method; format: functional; settings: time 18-24 hrs
Escherichia coli [2] = test: Antimicrobial activity against Escherichia coli K88 assessed as absence bacterial growth measured after 18 to 24 hrs incubation by NCCLS method; format: functional; settings: time 18-24 hrs
Salmonella typhimurium [3] = test: Antimicrobial activity against Salmonella typhimurium 14028 assessed as absence bacterial growth measured after 18 to 24 hrs incubation by NCCLS method; format: functional, Salmonella enterica subsp. enterica serovar Typhimurium; settings: Salmonella enterica, time 18-24 hrs
[4] = Antimicrobial activity against Salmonella pullorum C7913 assessed as absence bacterial growth measured after 18 to 24 hrs incubation by NCCLS method; format: functional, Salmonella enterica subsp. enterica serovar Pullorum; settings: Salmonella enterica, time 18-24 hrs
Pseudomonas aeruginosa [5] = test: Antimicrobial activity against Pseudomonas aeruginosa 27853 assessed as absence bacterial growth measured after 18 to 24 hrs incubation by NCCLS method; format: functional; settings: time 18-24 hrs
Acinetobacter baumannii [6] = test: Antimicrobial activity against Acinetobacter baumannii 1.6769 assessed as absence bacterial growth measured after 18 to 24 hrs incubation by NCCLS method; format: functional; settings: time 18-24 hrs
Enterococcus faecalis [7] = test: Antimicrobial activity against Enterococcus faecalis 29212 assessed as absence bacterial growth measured after 18 to 24 hrs incubation by NCCLS method; format: functional; settings: time 18-24 hrs
Listeria monocytogenes [8] = test: Antimicrobial activity against Listeria monocytogenes 1.10753 assessed as absence bacterial growth measured after 18 to 24 hrs incubation by NCCLS method; format: functional; settings: time 18-24 hrs
Bacillus cereus [9] = test: Antimicrobial activity against Bacillus cereus 1.932 assessed as absence bacterial growth measured after 18 to 24 hrs incubation by NCCLS method; format: functional; settings: time 18-24 hrs
Staphylococcus aureus [10] = test: Antimicrobial activity against Staphylococcus aureus 29213 assessed as absence bacterial growth measured after 18 to 24 hrs incubation by NCCLS method; format: functional; settings: time 18-24 hrs
Staphylococcus aureus [11] = test: Antimicrobial activity against Methicillin-resistant Staphylococcus aureus 43300 assessed as absence bacterial growth measured after 18 to 24 hrs incubation by NCCLS method; format: functional; settings: time 18-24 hrs
[12] = tested on: Staphylococcus epidermidis; test: Antimicrobial activity against Staphylococcus epidermidis 12228 assessed as absence bacterial growth measured after 18 to 24 hrs incubation by NCCLS method; format: functional; settings: time 18-24 hrs
Staphylococcus aureus [13] = test: Antimicrobial activity against Staphylococcus aureus 29213 assessed as absence bacterial growth measured after 18 to 24 hrs incubation by NCCLS m; format: functional; settings: time 18-24 hrs
Escherichia coli [14] = test: Antimicrobial activity against Escherichia coli 25922 assessed as bacterial killing measured after 16 hrs incubation; format: functional
Escherichia coli [15] = test: Antimicrobial activity against Escherichia coli K88 assessed as bacterial killing measured after 16 hrs incubation; format: functional
Salmonella typhimurium [16] = test: Antimicrobial activity against Salmonella typhimurium 14028 assessed as bacterial killing measured after 16 hrs incubation; format: functional, Salmonella enterica subsp. enterica serovar Typhimurium; settings: Salmonella enterica
Salmonella typhimurium [17] = test: Antimicrobial activity against Salmonella typhimurium C7731 assessed as bacterial killing measured after 16 hrs incubation; format: functional, Salmonella enterica subsp. enterica serovar Typhimurium; settings: Salmonella enterica
[18] = Antimicrobial activity against Salmonella pullorum C7913 assessed as bacterial killing measured after 16 hrs incubation; format: functional, Salmonella enterica subsp. enterica serovar Pullorum; settings: Salmonella enterica
Pseudomonas aeruginosa [19] = test: Antimicrobial activity against Pseudomonas aeruginosa 27853 assessed as bacterial killing measured after 16 hrs incubation; format: functional
Acinetobacter baumannii [20] = test: Antimicrobial activity against Acinetobacter baumannii 1.6769 assessed as bacterial killing measured after 16 hrs incubation; format: functional
Enterococcus faecalis [21] = test: Antimicrobial activity against Enterococcus faecalis 29212 assessed as bacterial killing measured after 16 hrs incubation; format: functional
Listeria monocytogenes [22] = test: Antimicrobial activity against Listeria monocytogenes 1.10753 assessed as bacterial killing measured after 16 hrs incubation; format: functional
Bacillus cereus [23] = test: Antimicrobial activity against Bacillus cereus 1.932 assessed as bacterial killing measured after 16 hrs incubation; format: functional
Staphylococcus aureus [24] = test: Antimicrobial activity against Staphylococcus aureus 29213 assessed as bacterial killing measured after 16 hrs incubation; format: functional
Staphylococcus aureus [25] = test: Antimicrobial activity against Methicillin-resistant Staphylococcus aureus 43300 assessed as bacterial killing measured after 16 hrs incubation; format: functional
[26] = tested on: Staphylococcus epidermidis; test: Antimicrobial activity against Staphylococcus epidermidis 12228 assessed as bacterial killing measured after 16 hrs incubation; format: functional
Staphylococcus aureus [27] = test: Antimicrobial activity against Staphylococcus aureus 25923 assessed as bacterial killing measured after 16 hrs incubation; format: functional
Salmonella typhimurium [28] = test: Antimicrobial activity against Salmonella typhimurium C7731 assessed as absence bacterial growth measured after 18 to 24 hrs incubation by NCCLS method; format: functional, Salmonella enterica subsp. enterica serovar Typhimurium; settings: Salmonella enterica, time 18-24 hrs
Escherichia coli [29] = test: Antimicrobial activity against Escherichia coli 25922 assessed as absence bacterial growth measured after 18 to 24 hrs incubation in presence of 50% serum by NCCLS method; format: functional; settings: time 18-24 hrs
Escherichia coli [30] = test: Antimicrobial activity against Escherichia coli 25922 assessed as absence bacterial growth measured after 18 to 24 hrs incubation in presence of 25% serum by NCCLS method; format: functional; settings: time 18-24 hrs
Escherichia coli [31] = test: Antimicrobial activity against Escherichia coli 25922 assessed as absence bacterial growth measured after 18 to 24 hrs incubation in presence of 12.5% serum by NCCLS method; format: functional; settings: time 18-24 hrs
[32] = Hemolytic activity in human RBC at effective concentration at 128 uM measured after 1 hr by microplate reader relative to control; format: toxicity, cell-based, Erythrocyte; settings: human red blood cells (erythrocytes), read-out: Activity
Escherichia coli [33] = test: Antimicrobial activity against Escherichia coli 25922 assessed as absence bacterial growth measured after 18 to 24 hrs incubation in presence of NaCl by NCCLS method; format: functional; settings: time 18-24 hrs
Escherichia coli [34] = test: Antimicrobial activity against Escherichia coli 25922 assessed as absence bacterial growth measured after 18 to 24 hrs incubation in presence of KCl by NCCLS method; format: functional; settings: time 18-24 hrs
Escherichia coli [35] = test: Antimicrobial activity against Escherichia coli 25922 assessed as absence bacterial growth measured after 18 to 24 hrs incubation in presence of NH4Cl by NCCLS method; format: functional; settings: time 18-24 hrs
Escherichia coli [36] = test: Antimicrobial activity against Escherichia coli 25922 assessed as absence bacterial growth measured after 18 to 24 hrs incubation in presence of MgCl2 by NCCLS method; format: functional; settings: time 18-24 hrs
Escherichia coli [37] = test: Antimicrobial activity against Escherichia coli 25922 assessed as absence bacterial growth measured after 18 to 24 hrs incubation in presence of ZnCl2 by NCCLS method; format: functional; settings: time 18-24 hrs
Escherichia coli [38] = test: Antimicrobial activity against Escherichia coli 25922 assessed as absence bacterial growth measured after 18 to 24 hrs incubation in presence of FeCl3 by NCCLS method; format: functional; settings: time 18-24 hrs
Erythrocyte = test: Hemolytic activity in human RBC at effective concentration measured after 1 hr by microplate reader analysis; format: toxicity, cell-based
[39] = Cytotoxicity against mouse RAW264.7 cells assessed as cell survival rate measured after 8 hrs by MTT assay; format: toxicity, cell-based
[40] = Cytotoxicity against human HEK-293T cells assessed as cell survival rate measured after 8 hrs by MTT assay; format: toxicity, cell-based
[41] = Cytotoxicity against porcine IPEC-J2 cells assessed as cell survival rate measured after 8 hrs by MTT assay; format: toxicity, cell-based, Sus scrofa; settings: pig

## H-LKLWLKGGKLWLKGGKLWLKG-NH2
Escherichia coli [1]
  MIC: 4 µM
Escherichia coli [2]
  MIC: 1 µM
Salmonella typhimurium [3]
  MIC: > 32 µM
[4]
  MIC: 2 µM
Pseudomonas aeruginosa [5]
  MIC: 32 µM
Acinetobacter baumannii [6]
  MIC: 16 µM
Enterococcus faecalis [7]
  MIC: > 32 µM
Listeria monocytogenes [8]
  MIC: > 32 µM
Bacillus cereus [9]
  MIC: > 32 µM
Staphylococcus aureus [10]
  MIC: > 32 µM
Staphylococcus aureus [11]
  MIC: > 32 µM
[12]
  MIC: > 32 µM
Staphylococcus aureus [13]
  MIC: > 32 µM
Escherichia coli [14]
  MBC: 16 µM
Escherichia coli [15]
  MBC: 1 µM
Salmonella typhimurium [16]
  MBC: > 32 µM
Salmonella typhimurium [17]
  MBC: > 32 µM
[18]
  MBC: 2 µM
Pseudomonas aeruginosa [19]
  MBC: 32 µM
Acinetobacter baumannii [20]
  MBC: 16 µM
Enterococcus faecalis [21]
  MBC: > 32 µM
Listeria monocytogenes [22]
  MBC: > 32 µM
Bacillus cereus [23]
  MBC: > 32 µM
Staphylococcus aureus [24]
  MBC: > 32 µM
Staphylococcus aureus [25]
  MBC: > 32 µM
[26]
  MBC: > 32 µM
Staphylococcus aureus [27]
  MBC: > 32 µM
Salmonella typhimurium [28]
  MIC: > 32 µM
Escherichia coli [29]
  MIC: > 32 µM
Escherichia coli [30]
  MIC: > 32 µM
Escherichia coli [31]
  MIC: 32 µM
[32]
  hemolysis at 1 h, 128 µM: < 10%
Escherichia coli [33]
  MIC: > 32 µM
Escherichia coli [34]
  MIC: 8 µM
Escherichia coli [35]
  MIC: 8 µM
Escherichia coli [36]
  MIC: > 32 µM
Escherichia coli [37]
  MIC: 8 µM
Escherichia coli [38]
  MIC: 8 µM
Erythrocyte
  HC10: > 128 µM
[39]
  IC50 at 8 h: > 64 µM
[40]
  IC50 at 8 h: > 64 µM
[41]
  IC50 at 8 h: 33.4 µM

## H-MKLWLKGGKLWLKGGKLWLKG-NH2
Escherichia coli [1]
  MIC: 4 µM
Escherichia coli [2]
  MIC: 1 µM
Salmonella typhimurium [3]
  MIC: 16 µM
[4]
  MIC: 2 µM
Pseudomonas aeruginosa [5]
  MIC: > 32 µM
Acinetobacter baumannii [6]
  MIC: 8 µM
Enterococcus faecalis [7]
  MIC: > 32 µM
Listeria monocytogenes [8]
  MIC: > 32 µM
Bacillus cereus [9]
  MIC: > 32 µM
Staphylococcus aureus [10]
  MIC: > 32 µM
Staphylococcus aureus [11]
  MIC: > 32 µM
[12]
  MIC: > 32 µM
Staphylococcus aureus [13]
  MIC: > 32 µM
Escherichia coli [14]
  MBC: 4 µM
Escherichia coli [15]
  MBC: 2 µM
Salmonella typhimurium [16]
  MBC: 16 µM
Salmonella typhimurium [17]
  MBC: 32 µM
[18]
  MBC: 2 µM
Pseudomonas aeruginosa [19]
  MBC: > 32 µM
Acinetobacter baumannii [20]
  MBC: 16 µM
Enterococcus faecalis [21]
  MBC: > 32 µM
Listeria monocytogenes [22]
  MBC: > 32 µM
Bacillus cereus [23]
  MBC: > 32 µM
Staphylococcus aureus [24]
  MBC: > 32 µM
Staphylococcus aureus [25]
  MBC: > 32 µM
[26]
  MBC: > 32 µM
Staphylococcus aureus [27]
  MBC: > 32 µM
Salmonella typhimurium [28]
  MIC: 8 µM
Escherichia coli [29]
  MIC: > 32 µM
Escherichia coli [30]
  MIC: 32 µM
Escherichia coli [31]
  MIC: 32 µM
[32]
  hemolysis at 1 h, 128 µM: < 10%
Escherichia coli [33]
  MIC: 16 µM
Escherichia coli [34]
  MIC: 4 µM
Escherichia coli [35]
  MIC: 4 µM
Escherichia coli [36]
  MIC: > 32 µM
Escherichia coli [37]
  MIC: 4 µM
Escherichia coli [38]
  MIC: 4 µM
Erythrocyte
  HC10: 128 µM
[39]
  IC50 at 8 h: > 64 µM
[40]
  IC50 at 8 h: > 64 µM
[41]
  IC50 at 8 h: 41 µM

## H-VKLWLKGGKLWLKGGKLWLKG-NH2
Escherichia coli [1]
  MIC: 4 µM
Escherichia coli [2]
  MIC: 1 µM
Salmonella typhimurium [3]
  MIC: 8 µM
[4]
  MIC: 2 µM
Pseudomonas aeruginosa [5]
  MIC: > 32 µM
Acinetobacter baumannii [6]
  MIC: 4 µM
Enterococcus faecalis [7]
  MIC: > 32 µM
Listeria monocytogenes [8]
  MIC: > 32 µM
Bacillus cereus [9]
  MIC: > 32 µM
Staphylococcus aureus [10]
  MIC: > 32 µM
Staphylococcus aureus [11]
  MIC: > 32 µM
[12]
  MIC: > 32 µM
Staphylococcus aureus [13]
  MIC: > 32 µM
Escherichia coli [14]
  MBC: 16 µM
Escherichia coli [15]
  MBC: 1 µM
Salmonella typhimurium [16]
  MBC: 16 µM
Salmonella typhimurium [17]
  MBC: 32 µM
[18]
  MBC: 4 µM
Pseudomonas aeruginosa [19]
  MBC: > 32 µM
Acinetobacter baumannii [20]
  MBC: 16 µM
Enterococcus faecalis [21]
  MBC: > 32 µM
Listeria monocytogenes [22]
  MBC: > 32 µM
Bacillus cereus [23]
  MBC: > 32 µM
Staphylococcus aureus [24]
  MBC: > 32 µM
Staphylococcus aureus [25]
  MBC: > 32 µM
[26]
  MBC: > 32 µM
Staphylococcus aureus [27]
  MBC: > 32 µM
Salmonella typhimurium [28]
  MIC: 8 µM
Escherichia coli [29]
  MIC: > 32 µM
Escherichia coli [30]
  MIC: 32 µM
Escherichia coli [31]
  MIC: 16 µM
[32]
  hemolysis at 1 h, 128 µM: < 10%
Escherichia coli [33]
  MIC: > 32 µM
Escherichia coli [34]
  MIC: 4 µM
Escherichia coli [35]
  MIC: 8 µM
Escherichia coli [36]
  MIC: > 32 µM
Escherichia coli [37]
  MIC: 4 µM
Escherichia coli [38]
  MIC: 4 µM
Erythrocyte
  HC10: > 128 µM
[39]
  IC50 at 8 h: > 64 µM
[40]
  IC50 at 8 h: > 64 µM
[41]
  IC50 at 8 h: 60.2 µM
